Assay results published in patent US6410575B1, “Viral treatment” (The Procter & Gamble Company, priority 1999, dated 2002).
Where “and” joins values, the source holds several entries; their conditions need not be identical. Equal values may be shown once.

Legend:
HIV-1 cell line, CEMRF = test: Long term in vitro study, CEMRF; assay type: cell-based; conditions: 7 μg/ml
Procedure: (§1) Toxicity quantification involves the XTT-based evaluation. Assays were designed to characterize the long term effects of the compounds on virus production and to characterize the longer term effects of the compounds on virus production from chronically HIV infected cells.
(§2) CEM-SS cells chronically infected with HIV isolate, for example SKI (CEM-SKI) are cultured in RPMI1640 tissue culture medium supplemented with 10% fetal bovine serum and antibiotics. […] CEM-SKI or other infected cells with no added drug are used as the control cells.
(§3) Cells are allowed to grow to a density of approximately 1×10^6 cells/ml and are then passaged at a 1:10 dilution. […] The drug concentration in the flask is then increased two-fold and the cells maintained as above.
(§4) The cell populations contain integrated copies of the HIV genome and constitutively produce HIV at relatively high levels or are latently infected and only produce virus after stimulation with phorbol esters, tumor necrosis factor or IL6(U1 and ACH2). Reductions in virus products were observed when quantifying supernatant reverse transcriptase activity.
The results with CEMRF cells was reported at weekly intervals.
The CEMRF is a viral strain of the CEMSS cell line.

HIV-1 cell line, CEMSKI = test: Long term in vitro study, CEMSKI; assay type: cell-based
Procedure: as §1, §2, §3, §4
The results with CEMSKI cells was reported at weekly intervals.
The CEMSKI cell like is a viral strain of the CEMSS cell line.

[1] = Toxicity values in the HHV8 test; assay type: cell-based; conditions: human, TPA-induced BCBL-1 cells; read-out: TC50 (the source's name)
Procedure: as §1
(§5) The DNA copy number and the toxicity value were measured and compared with Cidofovir. Kaposi's sarcoma (KS) is a cancer that is often found in people with weak immune systems, such as those taking immunosuppressants or those with AIDS. The exact nature of the disease is uncertain, but it is almost always found in association with HHV8.

TPA-induced BCBL-1 cells = test: Toxicity values in the HHV8 test; assay type: cell-based
Procedure: as §1, §5

HIV-2 cell line, CEMROD = test: Long term in vitro study, CEMROD; assay type: cell-based
Procedure: as §1, §2, §3, §4
The results with CEMROD cells was reported at weekly intervals.
The CEMROD cell line is a viral strain of the CEMSS cell line.

HIV-2 virus, CEMROD = test: In vitro screening test against HIV-2, reverse transcriptase activity; assay type: cell-based; set-up: Reverse Transcriptase Activity, sample / Reverse Transcriptase Activity, average: unit not given here
Text: The results of one test are shown below

vero cells = test: Herpes simplex testing, toxicity (TC50); set-up: unit not given beside the values

Structure (SMILES): NC(=S)Nc1nsc(-c2ccccc2)n1
- virus production (supernatant reverse transcriptase activity) (HIV-1 cell line, CEMRF; day 4): 5423
- virus production (supernatant reverse transcriptase activity) (HIV-1 cell line, CEMRF; day 11): 2249
- virus production (supernatant reverse transcriptase activity) (HIV-1 cell line, CEMRF; day 18): 2951
- virus production (supernatant reverse transcriptase activity) (HIV-1 cell line, CEMRF; day 25): 3606
- virus production (supernatant reverse transcriptase activity) (HIV-1 cell line, CEMSKI; 7 μg/ml, day 4): 6593
- virus production (supernatant reverse transcriptase activity) (HIV-1 cell line, CEMSKI; 7 μg/ml, day 11): 8676
- virus production (supernatant reverse transcriptase activity) (HIV-1 cell line, CEMSKI; 7 μg/ml, day 18): 10912
- virus production (supernatant reverse transcriptase activity) (HIV-1 cell line, CEMSKI; 7 μg/ml, day 25): 9356
- virus production (supernatant reverse transcriptase activity) (HIV-1 cell line, CEMSKI; 7 μg/ml, day 32): 8803
- virus production (supernatant reverse transcriptase activity) (HIV-1 cell line, CEMSKI; 7 μg/ml, day 39): 6655
- virus production (supernatant reverse transcriptase activity) (HIV-1 cell line, CEMSKI; 7 μg/ml, day 46): 8280
- virus production (supernatant reverse transcriptase activity) (HIV-1 cell line, CEMSKI; 7 μg/ml, day 53): 7549
- virus production (supernatant reverse transcriptase activity) (HIV-1 cell line, CEMSKI; 15 μg/ml, day 4): 6815
- virus production (supernatant reverse transcriptase activity) (HIV-1 cell line, CEMSKI; 15 μg/ml, day 11): 8202
- virus production (supernatant reverse transcriptase activity) (HIV-1 cell line, CEMSKI; 15 μg/ml, day 18): 10389
- virus production (supernatant reverse transcriptase activity) (HIV-1 cell line, CEMSKI; 15 μg/ml, day 25): 7816
- virus production (supernatant reverse transcriptase activity) (HIV-1 cell line, CEMSKI; 15 μg/ml, day 32): 6672
- virus production (supernatant reverse transcriptase activity) (HIV-1 cell line, CEMSKI; 15 μg/ml, day 39): 7087
- virus production (supernatant reverse transcriptase activity) (HIV-1 cell line, CEMSKI; 15 μg/ml, day 46): 6457
- virus production (supernatant reverse transcriptase activity) (HIV-1 cell line, CEMSKI; 15 μg/ml, day 53): 6544
- virus production (supernatant reverse transcriptase activity) (HIV-1 cell line, CEMSKI; 30 μg/ml, day 4): 6626
- virus production (supernatant reverse transcriptase activity) (HIV-1 cell line, CEMSKI; 30 μg/ml, day 11): 6582
- virus production (supernatant reverse transcriptase activity) (HIV-1 cell line, CEMSKI; 30 μg/ml, day 18): 7494
- virus production (supernatant reverse transcriptase activity) (HIV-1 cell line, CEMSKI; 30 μg/ml, day 25): 4421
- virus production (supernatant reverse transcriptase activity) (HIV-1 cell line, CEMSKI; 30 μg/ml, day 32): 4056
- virus production (supernatant reverse transcriptase activity) (HIV-1 cell line, CEMSKI; 30 μg/ml, day 39): 2118
- virus production (supernatant reverse transcriptase activity) (HIV-1 cell line, CEMSKI; 30 μg/ml, day 46): 4117
- virus production (supernatant reverse transcriptase activity) (HIV-1 cell line, CEMSKI; 30 μg/ml, day 53): 4779
- virus production (supernatant reverse transcriptase activity) (HIV-1 cell line, CEMSKI; repeated test, 7 μg/ml, day 4): 6224
- virus production (supernatant reverse transcriptase activity) (HIV-1 cell line, CEMSKI; repeated test, 7 μg/ml, day 11): 6658
- virus production (supernatant reverse transcriptase activity) (HIV-1 cell line, CEMSKI; repeated test, 7 μg/ml, day 18): 7207
- virus production (supernatant reverse transcriptase activity) (HIV-1 cell line, CEMSKI; repeated test, 7 μg/ml, day 25): 5725
- virus production (supernatant reverse transcriptase activity) (HIV-1 cell line, CEMSKI; repeated test, 7 μg/ml, day 32): 3161
- virus production (supernatant reverse transcriptase activity) (HIV-1 cell line, CEMSKI; repeated test, 7 μg/ml, day 39): 9602
- virus production (supernatant reverse transcriptase activity) (HIV-1 cell line, CEMSKI; repeated test, 7 μg/ml, day 46): 13984
- virus production (supernatant reverse transcriptase activity) (HIV-1 cell line, CEMSKI; repeated test, 7 μg/ml, day 53): 11578
- virus production (supernatant reverse transcriptase activity) (HIV-1 cell line, CEMSKI; repeated test, 15 μg/ml, day 4): 5685
- virus production (supernatant reverse transcriptase activity) (HIV-1 cell line, CEMSKI; repeated test, 15 μg/ml, day 11): 5733
- virus production (supernatant reverse transcriptase activity) (HIV-1 cell line, CEMSKI; repeated test, 15 μg/ml, day 18): 6236
- virus production (supernatant reverse transcriptase activity) (HIV-1 cell line, CEMSKI; repeated test, 15 μg/ml, day 25): 3752
- virus production (supernatant reverse transcriptase activity) (HIV-1 cell line, CEMSKI; repeated test, 15 μg/ml, day 32): 2451
- virus production (supernatant reverse transcriptase activity) (HIV-1 cell line, CEMSKI; repeated test, 15 μg/ml, day 39): 5526
- virus production (supernatant reverse transcriptase activity) (HIV-1 cell line, CEMSKI; repeated test, 15 μg/ml, day 46): 12397
- virus production (supernatant reverse transcriptase activity) (HIV-1 cell line, CEMSKI; repeated test, 15 μg/ml, day 53): 9662
- virus production (supernatant reverse transcriptase activity) (HIV-1 cell line, CEMSKI; repeated test, 30 μg/ml, day 4): 4789
- virus production (supernatant reverse transcriptase activity) (HIV-1 cell line, CEMSKI; repeated test, 30 μg/ml, day 11): 5200
- virus production (supernatant reverse transcriptase activity) (HIV-1 cell line, CEMSKI; repeated test, 30 μg/ml, day 18): 4821
- virus production (supernatant reverse transcriptase activity) (HIV-1 cell line, CEMSKI; repeated test, 30 μg/ml, day 25): 2418
- virus production (supernatant reverse transcriptase activity) (HIV-1 cell line, CEMSKI; repeated test, 30 μg/ml, day 32): 1651
- virus production (supernatant reverse transcriptase activity) (HIV-1 cell line, CEMSKI; repeated test, 30 μg/ml, day 39): 3386
- virus production (supernatant reverse transcriptase activity) (HIV-1 cell line, CEMSKI; repeated test, 30 μg/ml, day 46): 9353
- virus production (supernatant reverse transcriptase activity) (HIV-1 cell line, CEMSKI; repeated test, 30 μg/ml, day 53): 6466
- CC50 [1]: 100 µM
- % cell control (TPA-induced BCBL-1 cells; 0.64 μM): 114.3%
- % cell control (TPA-induced BCBL-1 cells; 2 μM): 114.9%
- % cell control (TPA-induced BCBL-1 cells; 6.4 μM): 104.6%
- % cell control (TPA-induced BCBL-1 cells; 20 μM): 114.8%
- % cell control (TPA-induced BCBL-1 cells; 64 μM): 59.7%
- % cell control (TPA-induced BCBL-1 cells; 200 μM): 23.4%
- virus production (supernatant reverse transcriptase activity) (HIV-2 cell line, CEMROD; 7 μg/ml, day 4): 6593
- virus production (supernatant reverse transcriptase activity) (HIV-2 cell line, CEMROD; 7 μg/ml, day 11): 8676
- virus production (supernatant reverse transcriptase activity) (HIV-2 cell line, CEMROD; 7 μg/ml, day 18): 10912
- virus production (supernatant reverse transcriptase activity) (HIV-2 cell line, CEMROD; 7 μg/ml, day 25): 9356
- virus production (supernatant reverse transcriptase activity) (HIV-2 cell line, CEMROD; 7 μg/ml, day 32): 8803
- virus production (supernatant reverse transcriptase activity) (HIV-2 cell line, CEMROD; 7 μg/ml, day 39): 6655
- virus production (supernatant reverse transcriptase activity) (HIV-2 cell line, CEMROD; 7 μg/ml, day 46): 8280
- virus production (supernatant reverse transcriptase activity) (HIV-2 cell line, CEMROD; 7 μg/ml, day 53): 7549
- virus production (supernatant reverse transcriptase activity) (HIV-2 cell line, CEMROD; 15 μg/ml, day 4): 6815
- virus production (supernatant reverse transcriptase activity) (HIV-2 cell line, CEMROD; 15 μg/ml, day 11): 8202
- virus production (supernatant reverse transcriptase activity) (HIV-2 cell line, CEMROD; 15 μg/ml, day 18): 10389
- virus production (supernatant reverse transcriptase activity) (HIV-2 cell line, CEMROD; 15 μg/ml, day 25): 7816
- virus production (supernatant reverse transcriptase activity) (HIV-2 cell line, CEMROD; 15 μg/ml, day 32): 6672
- virus production (supernatant reverse transcriptase activity) (HIV-2 cell line, CEMROD; 15 μg/ml, day 39): 7087
- virus production (supernatant reverse transcriptase activity) (HIV-2 cell line, CEMROD; 15 μg/ml, day 46): 6457
- virus production (supernatant reverse transcriptase activity) (HIV-2 cell line, CEMROD; 15 μg/ml, day 53): 6544
- virus production (supernatant reverse transcriptase activity) (HIV-2 cell line, CEMROD; 30 μg/ml, day 4): 6626
- virus production (supernatant reverse transcriptase activity) (HIV-2 cell line, CEMROD; 30 μg/ml, day 11): 6582
- virus production (supernatant reverse transcriptase activity) (HIV-2 cell line, CEMROD; 30 μg/ml, day 18): 7494
- virus production (supernatant reverse transcriptase activity) (HIV-2 cell line, CEMROD; 30 μg/ml, day 25): 4421
- virus production (supernatant reverse transcriptase activity) (HIV-2 cell line, CEMROD; 30 μg/ml, day 32): 4056
- virus production (supernatant reverse transcriptase activity) (HIV-2 cell line, CEMROD; 30 μg/ml, day 39): 2118
- virus production (supernatant reverse transcriptase activity) (HIV-2 cell line, CEMROD; 30 μg/ml, day 46): 4117
- virus production (supernatant reverse transcriptase activity) (HIV-2 cell line, CEMROD; 30 μg/ml, day 53): 4779
- % virus control (HIV-2 virus, CEMROD; 0.32 μg/ml): 113.2%
- Reverse Transcriptase Activity, average (HIV-2 virus, CEMROD; 0.32 μg/ml): 5451
- Reverse Transcriptase Activity, sample (HIV-2 virus, CEMROD; 0.32 μg/ml): 4664 and 6972 and 4717
- % virus control (HIV-2 virus, CEMROD; 1 μg/ml): 95.5%
- Reverse Transcriptase Activity, average (HIV-2 virus, CEMROD; 1 μg/ml): 4601
- Reverse Transcriptase Activity, sample (HIV-2 virus, CEMROD; 1 μg/ml): 4005 and 4407 and 5392
- % virus control (HIV-2 virus, CEMROD; 1.0 μg/ml): 66.6%
- Reverse Transcriptase Activity, average (HIV-2 virus, CEMROD; 1.0 μg/ml): 3208
- Reverse Transcriptase Activity, sample (HIV-2 virus, CEMROD; 1.0 μg/ml): 3001 and 3077 and 3547
- % virus control (HIV-2 virus, CEMROD; 3.2 μg/ml): 74.9%
- Reverse Transcriptase Activity, average (HIV-2 virus, CEMROD; 3.2 μg/ml): 3606
- Reverse Transcriptase Activity, sample (HIV-2 virus, CEMROD; 3.2 μg/ml): 4166 and 3318 and 3334
- % virus control (HIV-2 virus, CEMROD; 32 μg/ml): 36.4%
- Reverse Transcriptase Activity, average (HIV-2 virus, CEMROD; 32 μg/ml): 1753
- Reverse Transcriptase Activity, sample (HIV-2 virus, CEMROD; 32 μg/ml): 1832 and 1550 and 1876
- % virus control (HIV-2 virus, CEMROD; 100 μg/ml): 1.2%
- Reverse Transcriptase Activity, average (HIV-2 virus, CEMROD; 100 μg/ml): 57
- Reverse Transcriptase Activity, sample (HIV-2 virus, CEMROD; 100 μg/ml): 72 and 48 and 52
- TC50 (vero cells): > 200
